Where two headings read alike, the source gives them in different places.
Assays:
[1] = biological target: T1, human alpha 2A receptor (Homo sapiens, UniProt P08913); test: FLIPR Ca+2 influx assay, a2A; type: cell-based; settings: for a2A (eff): efficacy in brackets, norepinephrine is the standard full agonist, HEK 293 cells
T1 construct: expressed in transfected cells; host or cells: HEK 293
T1 sequence (P08913 1-465): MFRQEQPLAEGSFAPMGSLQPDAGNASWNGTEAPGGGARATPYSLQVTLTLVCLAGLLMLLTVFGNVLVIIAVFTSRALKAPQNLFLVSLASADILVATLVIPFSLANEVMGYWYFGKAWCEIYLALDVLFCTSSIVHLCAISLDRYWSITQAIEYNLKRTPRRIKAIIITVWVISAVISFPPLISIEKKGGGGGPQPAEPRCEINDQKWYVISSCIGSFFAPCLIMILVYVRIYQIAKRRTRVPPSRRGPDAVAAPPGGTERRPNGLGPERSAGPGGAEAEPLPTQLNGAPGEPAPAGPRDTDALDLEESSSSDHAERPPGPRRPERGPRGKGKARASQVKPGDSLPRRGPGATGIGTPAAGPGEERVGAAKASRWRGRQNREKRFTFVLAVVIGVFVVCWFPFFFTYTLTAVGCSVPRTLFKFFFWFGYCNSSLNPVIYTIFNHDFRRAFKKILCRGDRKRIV
Experimental: (§1) HEK 293 cells stably expressing the bovine α1A receptor, human alpha 2A receptor and the chimeric G protein Gqi5, are plated in poly-D-lysine coated 384-well plates at 20,000-40,000 cells per well and grown overnight in DMEM supplemented with 10% fetal bovine serum. For FLIPR (fluorometric image plate reader) evaluation, cells are washed twice with HBSS/HEPES Buffer (1× Hanks Buffered Salt Solution, 20 mM HEPES, pH 7.4) prior to the addition of Fluo-4-AM (4 uM Fluo-4-AM, 0.04% pluronic acid in HBSS/HEPES Buffer), a calcium-sensitive dye. Cells are loaded with dye for 40 minutes at 37° C., then washed 4 times with HBSS/HEPES Buffer. For both the agonist and antagonist assay, the test compounds are tested between 0.64 nM-10,000 nM.
(§2) For an agonist assay, the reaction is initiated by the addition of the appropriate dilutions of compounds and the transient calcium signal captured. The peak height of the calcium curve is determined and utilized for calculation of EC50 and efficacy using ActivityBase. Norepinephrine is the standard full agonist used for evaluating alpha-1 and alpha-2 receptor activity.
The residual norepinephrine peak height is compared to the non-antagonized norepinephrine peak height for the determination of % antagonism.

[2] = biological target: T2, bovine α1A receptor (Bos taurus, UniProt P18130); test: FLIPR Ca+2 influx assay, a1A; type: cell-based; settings: for a1A (eff): efficacy in brackets, norepinephrine is the standard full agonist, HEK 293 cells
T2 sequence (P18130 1-466): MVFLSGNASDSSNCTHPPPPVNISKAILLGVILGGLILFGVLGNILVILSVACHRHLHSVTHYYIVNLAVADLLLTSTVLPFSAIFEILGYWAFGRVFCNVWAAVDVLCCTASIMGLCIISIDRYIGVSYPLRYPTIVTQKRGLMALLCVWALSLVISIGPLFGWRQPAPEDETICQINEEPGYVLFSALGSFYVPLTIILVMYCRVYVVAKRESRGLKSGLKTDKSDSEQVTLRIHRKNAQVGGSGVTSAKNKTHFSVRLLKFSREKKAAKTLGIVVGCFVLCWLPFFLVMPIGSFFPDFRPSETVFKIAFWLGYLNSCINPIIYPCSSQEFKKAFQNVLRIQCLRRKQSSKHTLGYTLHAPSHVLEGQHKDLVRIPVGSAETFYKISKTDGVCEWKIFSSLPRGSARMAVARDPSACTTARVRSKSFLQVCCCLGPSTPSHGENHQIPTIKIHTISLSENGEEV
Experimental: as §1, §2
However, the antagonist blocks the transient calcium signal of the standard agonist norepinephrine in a dose-dependent manner. The residual norepinephrine peak height is compared to the non-antagonized norepinephrine peak height for the determination of % antagonism.

Cc1c(CO)cccc1[C@H](C)c1c[nH]cn1 [(S)-[3-(1-(1H-imidazol-4-yl)ethyl)-2-methylphenyl]methanol]
EC50 [1]: 0.025 µM | a2A (eff) [1]: 0.9 | EC50 [2]: 0.34 to 2.4 µM | a1A (eff) [2]: 0.7

Brc1c(NC2=NCCN2)ccc2nccnc12 [Brimonidine]
a2A (eff) [1]: 0.95 | EC50 ([2]; HEK 293 cells with chimeric G protein Gqi5, agonist assay, tested 0.64 nM-10,000 nM, n/a: Not active, read-out: a1A EC50): 0.6 to 2.4 µM | a1A (eff) [2]: 0.3

Reference: US8492557B2, “Ester pro-drugs of [3-(1-(1H-imidazol-4-yl)ethyl)-2-methylphenyl] methanol” (Allergan, Inc., priority 2010, dated 2013)
